In ChEMBL document CHEMBL1154575, “Bioactive 12-oleanene triterpene and secotriterpene acids from Maytenus undata” (J Nat Prod, 2000):
Values after ≈ are worked out from the molar mass of the structure shown.

Key:
[1] = Antiinflammatory activity in rat neonatal brain microglia cells assessed as effect on phorbol-12-myristate-13-acetate-stimulated thromboxane B2 release; type: functional, cell-based
[2] = Antiinflammatory activity in rat neonatal brain microglia cells assessed as effect on phorbol-12-myristate-13-acetate-stimulated superoxide release; type: functional, cell-based
[3] = Toxicity against rat neonatal brain microglia cells assessed as phorbol-12-myristate-13-acetate-stimulated LDH release; type: cell-based
[4] = test system: Staphylococcus aureus; assay: Antibacterial activity against Staphylococcus aureus ATCC 6535 after 48 hrs by agar dilution method; type: functional; conditions: ATCC 6535, 48 h
[5] = test system: Pseudomonas aeruginosa; assay: Antibacterial activity against Pseudomonas aeruginosa ATCC 15442 after 48 hrs by agar dilution method; type: functional; conditions: ATCC 15442, 48 h
[6] = test system: Staphylococcus aureus; assay: Antibacterial activity against methicillin-resistant Staphylococcus aureus ATCC 33591 after 48 hrs by agar dilution method; type: functional; conditions: ATCC 33591, 48 h

Compound	IC50 [1] [µM]	IC50 [2] [µM]	IC50 [3] [µM]	MIC [4] [µg/mL]	MIC [5] [µg/mL]	MIC [6] [µg/mL]
CC1(C)C(=O)CC[C@]2(C)[C@H]3C(=O)C=C4[C@@H]5C[C@@](C)(C(=O)O)CC[C@]5(C)CC[C@@]4(C)[C@]3(C)CC[C@@H]12	2.3	6.7	> 10			
CC1(C)C(=O)CC[C@]2(C)C3=CC=C4[C@@H]5C[C@@](C)(C(=O)O)CC[C@]5(C)CC[C@@]4(C)[C@]3(C)CC[C@@H]12	> 100	> 100	> 30	> 50	6.25 (≈ 13.8 µM)	> 50
CCO[C@@H]1C=C2[C@@H]3C[C@@](C)(C(=O)O)CC[C@]3(C)CC[C@@]2(C)[C@]2(C)CC[C@H]3C(C)(C)C(=O)CC[C@]3(C)[C@@H]12				> 12.5	12.5 (≈ 25.1 µM)	50 (≈ 100 µM)
C=C(C)[C@@H]1CC[C@]2(C)[C@H](CC=C3[C@@H]4C[C@](C)(C(=O)O)CC[C@]4(C)CC[C@]32C)[C@@]1(C)CCC(=O)O	0.5	1.9	> 1	> 3.25	6.25 (≈ 13.3 µM)	> 6.25
CC1(C)C(=O)CC[C@]2(C)[C@H]3[C@H](O)C=C4[C@@H]5C[C@@](C)(C(=O)O)CC[C@]5(C)CC[C@@]4(C)[C@]3(C)CC[C@@H]12	3.6	3.2	> 1	> 6.25	> 6.26	> 6.25
CO[C@@H]1C=C2[C@@H]3C[C@@](C)(C(=O)O)CC[C@]3(C)CC[C@@]2(C)[C@]2(C)CC[C@H]3C(C)(C)C(=O)CC[C@]3(C)[C@@H]12	5	15	> 30	> 10	10 (≈ 20.6 µM)	> 10
C=C(C)[C@@H]1CC[C@]2(C)[C@H](CC=C3[C@@H]4C[C@@](C)(C(=O)O)CC[C@]4(C)CC[C@]32C)[C@@]1(C)CCC(=O)O [KOETJAPIC ACID]				> 6.25	6.25 (≈ 13.3 µM)	12.5 (≈ 26.6 µM)
